Values of other authors as cited in patent US20020004046A1, “Combination therapy of respiratory diseases using antibodies” (priority 2000, published 2002).

How the values were obtained:
[1] = compared with untreated patients

For NC(=O)c1ncn([C@@H]2O[C@H](CO)[C@@H](O)[C@H]2O)n1 [ribavirin], the bioavailability (given orally) is given as “about 45%”, the “time of peak concentrations in plasma” value (in vivo, po) is given as 1 to 2 h and the “level of secondary infection following cessation of treatment” value [1] is given as “significantly higher”.
